Data set [1] relates to T1, MRP4.
T1 construct: expressed in transfected cells; host or cells: HEK293 cells
Briefly: Efflux transport assay in MRP4 HEK293 membrane vesicles. Format: biochemical, human. As to conditions: 5 and 50 µM, 10 min.

In data set [2] the target is T2, BCRP (Homo sapiens, UniProt Q9UNQ0).
T2 construct: made in house; host or cells: membrane vesicles from HEK293 cells expressing the transporter
T2 sequence (Q9UNQ0 1-655): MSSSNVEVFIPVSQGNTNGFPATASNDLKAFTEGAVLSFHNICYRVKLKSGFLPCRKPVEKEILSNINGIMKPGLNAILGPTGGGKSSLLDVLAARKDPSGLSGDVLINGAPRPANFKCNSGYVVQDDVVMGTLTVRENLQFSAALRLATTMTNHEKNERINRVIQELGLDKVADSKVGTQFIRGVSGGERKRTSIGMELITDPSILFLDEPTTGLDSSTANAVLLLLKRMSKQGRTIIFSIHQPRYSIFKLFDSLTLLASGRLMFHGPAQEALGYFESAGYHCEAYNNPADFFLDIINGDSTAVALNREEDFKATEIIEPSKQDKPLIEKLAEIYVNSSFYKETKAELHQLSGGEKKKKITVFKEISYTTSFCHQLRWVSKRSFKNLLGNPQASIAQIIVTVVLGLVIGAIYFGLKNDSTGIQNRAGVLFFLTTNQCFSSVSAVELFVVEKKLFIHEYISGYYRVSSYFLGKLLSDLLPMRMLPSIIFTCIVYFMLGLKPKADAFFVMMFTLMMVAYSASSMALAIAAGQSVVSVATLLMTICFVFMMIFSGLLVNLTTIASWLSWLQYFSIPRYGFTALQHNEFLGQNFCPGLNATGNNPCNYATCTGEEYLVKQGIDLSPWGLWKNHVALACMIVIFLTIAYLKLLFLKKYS
Briefly: Efflux transport assay in BCRP HEK293 membrane vesicles. It is filed as biochemical. As to conditions: 5 and 50 µM. On the procedure: Membrane vesicles, 5 μL (7.5 μg of total protein), prepared as previously reported, were aliquoted to wells of a conical‐shaped 96‐well plate. The plate was incubated for 10 min at +37°C before the initiation of transport by adding 25 μL of TS‐buffer (10 mM Tris, 250 mM sucrose, pH adjusted to 7.4 with HEPES) containing magnesium chloride (10 mM final in the reaction), adenosine triphosphate (ATP) or adenosine monophosphate (AMP), 4 mM final in the reaction, and the transporter substrate and inhibitor. Each experiment included triplicate samples for both ATP and AMP samples. The concentrations of rosuvastatin and N‐methyl‐quinidine were 1 μM in the BCRP and P‐gp vesicle inhibition assays, respectively. […] The transport reactions were quenched by adding 200 μL of cold TS‐buffer to each well and transferring the samples to a 96‐multiwell 1.0 μm glass fiber filter plate (Merck Millipore, Darmstadt, Germany) kept under vacuum. Wells were further washed four times with cold TS‐buffer, after which the plate was dried under vacuum. The compounds were eluted from the plate by applying 100 μL of 75% methanol containing 0.1% formic acid to each well and incubating at 250 RPM for 30 min before centrifuging the samples to an analysis plate at 2800 g for 2 min. For the rosuvastatin samples, the elution solvent contained rosuvastin‐d6 as the internal standard. […]

SMILES strings stand for the structures.

Turning to `Cc1onc(-c2c(Cl)cccc2Cl)c1C(=O)N[C@@H]1C(=O)N2[C@@H]1SC(C)(C)[C@@H]2C(=O)O` [Dicloxacillin], the “transport by MRP4” value in data set [1] is given as “did not transport”. The “transport by BCRP” value in data set [2] is listed as “did not transport”.
With `Cc1onc(-c2c(F)cccc2Cl)c1C(=O)N[C@@H]1C(=O)N2[C@@H]1SC(C)(C)[C@@H]2C(=O)O` [Flucloxacillin], the “transport by MRP4” value in data set [1] is “did not transport”. In data set [2], the “transport by BCRP” value is listed as “did not transport”.
